In paper PMC11781080 (RSC Advances, 2025):

Legend:
[1] = system: Vero cells (normal kidney epithelial cell); test: MTT cell viability assay, Vero cells; type: cell-based; settings: read-out: IC50 Vero, 72 h, mean ± S.E.M., n = 3
[2] = system: A549 cells (EGFR wild-type non-small-cell lung cancer); test: MTT cell viability assay, A549 cells; type: cell-based; settings: Homo sapiens, A549, 72 h, read-out: IC50 A549

IC50 [2]: 13.1 ± 0.8 µM
Structure (SMILES): CN(C)C/C=C/C(=O)Nc1cc2c(Nc3ccc(F)c(Cl)c3)ncnc2cc1O[C@H]1CCOC1 [Afatinib]
IC50 [1]: 5.77 ± 1.59 µM
